Type in all cases: in vivo
For assay [1], the system named is wheat (Triticum aestivum). The assay can be described thus: Test A postemergence. The following applies: Triticum aestivum, post-emergence, 240 h; for plant injury at 31 g/ha: 31 g ai/ha, visual injury after approx. 10 d, 0 no effect, 100 complete control; for plant injury at 125 g/ha: 125 g ai/ha; for plant injury at 500 g/ha: 500 g ai/ha. The essentials: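 Each rating is a visual injury score from 0 to 100 given about 10 d after treatment, judged against untreated controls kept alongside in the greenhouse. In loam soil–sand blend, seeds got a preemergence directed soil spray, while postemergence plants were 2 to 10 cm tall at spraying.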

Assay [2] deals with barnyardgrass (Echinochloa crus-galli). As to the kind of experiment: Test B flooded paddy test. Particulars: Echinochloa crus-galli, Flood, 250 g ai/ha, read-out: Barnyardgrass plant response rating. The essentials:
(§1)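 Visual ratings (0 none to 100 complete control) are relative to untreated plants, taken 13–15 d after treatment in a greenhouse. Test material went straight into floodwater standing 3 cm above the soil, kept constant, on plants at the 2-leaf stage.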

Assay [3] has as its system ducksalad (Heteranthera limosa). As to the kind of experiment: Test B flooded paddy test. The following applies: Heteranthera limosa, Flood, 250 g ai/ha, read-out: Ducksalad plant response rating. The essentials:
as §1

Assay [4] concerns rice (Oryra sativa). As to the kind of experiment: Test B flooded paddy test. The following applies: Oryza sativa, Flood, 250 g ai/ha, read-out: Rice plant response rating. Put shortly: as §1
In assay [5] the test system is sedge, umbrella (small-flower umbrella sedge, Cyperus difformis). The assay can be described thus: Test B flooded paddy test. The following applies: Cyperus difformis, Flood, 250 g ai/ha, read-out: Sedge, Umbrella plant response rating. The essentials:
as §1

Where [6] appears, read: Postemergence, 0 to 100 scale, read-out: Plant response rating, Wheat.
Where [7] appears, read: scale of 0 to 100 where 0 is no effect and 100 is complete control.
Setting [8] is: postemergence, visual injury rating after approximately 10 d, read-out: Wheat plant response rating (0 to 100 scale, 0 no effect, 100 complete control).
Where [9] appears, read: postemergence, 0 to 100 scale, 0 is no effect, 100 is complete control, read-out: Wheat plant response rating.
Where [10] appears, read: 0 to 100 scale where 0 is no effect and 100 is complete control.
[11] abbreviates: postemergence, visual injury vs untreated controls after approx. 10 d, 0 = no effect, 100 = complete control, read-out: Wheat plant response rating (0 to 100 scale).
[12] abbreviates: Postemergence, visual injury, 0 to 100 scale (0 no effect, 100 complete control), approx. 10 d, read-out: Plant response rating, Wheat.

Where two headings read alike, the source gives them in different places.

With `Cc1cc([C@H]2CN(C)C(=O)[C@@H]2C(=O)Nc2ccccc2F)cc(C)c1C` [Compound 797], in assay [1] (setting [6]), the plant injury at 31 g/ha was determined as 0%. In addition, the pest or weed control at 250 g/ha in assay [2] (setting [7]) was found to be 90%; in assay [3] (setting [7]), 90%; in assay [4] (setting [7]), 25%; in assay [5] (setting [7]), 0%.

Take `Cc1cc(F)cc([C@H]2CN(C)C(=O)[C@@H]2C(=O)Nc2cccc(F)c2C#N)c1` [Compound 800]: the plant injury at 31 g/ha in assay [1] (setting [6]) was determined as 0%. Besides, the pest or weed control at 250 g/ha turned out to be 95% in assay [2] (setting [7]), 95% in assay [3] (setting [7]), 30% in assay [4] (setting [7]) and 0% in assay [5] (setting [7]).

As to `Cc1cc(F)cc([C@H]2CN(C)C(=O)[C@@H]2C(=O)Nc2cccc(F)c2C)c1` [Compound 802], in assay [1] (setting [8]), the plant injury at 125 g/ha turned out to be 30%. In addition, the plant injury at 31 g/ha in assay [1] (setting [6]) amounted to 0%. For the same compound, the pest or weed control at 250 g/ha is 90% in assay [2] (setting [7]), 100% in assay [3] (setting [7]), 20% in assay [4] (setting [7]) and 0% in assay [5] (setting [7]).

Consider `CN1C[C@H](c2ccc(C(F)(F)F)c(Br)c2)[C@@H](C(=O)Nc2cccc(F)c2F)C1=O` [Compound 804], for which the plant injury at 125 g/ha in assay [1] (setting [8]) was determined as 20%. Further, the plant injury at 31 g/ha in assay [1] (setting [6]) is 0%. Besides, the pest or weed control at 250 g/ha in assay [2] (setting [7]) came to 30%; in assay [3] (setting [7]) it was 80%; in assay [4] (setting [7]) it was 60%; in assay [5] (setting [7]), 0%.

On to `CN1CC[C@H](c2cccc(OC(F)(F)F)c2)[C@@H](C(=O)Nc2ccccc2C(F)(F)F)C1=O` [Compound 806], for which the plant injury at 125 g/ha in assay [1] (setting [8]) was 0%. The plant injury at 31 g/ha in assay [1] (setting [6]) is 0%. The pest or weed control at 250 g/ha in assay [2] (setting [7]) turned out to be 0%; in assay [3] (setting [7]), 75%; in assay [4] (setting [7]), 0%; in assay [5] (setting [7]), 0%.

For the compound `CN1CC[C@H](c2cccc(OC(F)(F)F)c2)[C@@H](C(=O)Nc2ccc(F)c(F)c2F)C1=O` [Compound 808], the plant injury at 125 g/ha in assay [1] (setting [8]) amounted to 0%. Further, the plant injury at 31 g/ha in assay [1] (setting [6]) is 0%. Further, the pest or weed control at 250 g/ha in assay [2] (setting [7]) came out at 70%; in assay [3] (setting [7]) it was 100%; in assay [4] (setting [7]) it was 15%; in assay [5] (setting [7]), 0%.

Turning to `CSc1ccccc1NC(=O)[C@H]1C(=O)N(C)CC[C@@H]1c1cccc(OC(F)(F)F)c1` [Compound 809], the plant injury at 125 g/ha in assay [1] (setting [8]) came to 0%. The plant injury at 31 g/ha in assay [1] (setting [6]) was determined as 0%. For the same compound, the pest or weed control at 250 g/ha in assay [2] (setting [7]), in assay [3] (setting [7]), in assay [4] (setting [7]) and in assay [5] (setting [7]) was 0% in each case.

Regarding `CN1CC[C@H](c2ccc3c(c2)OC(F)(F)O3)[C@@H](C(=O)Nc2ccccc2C(F)(F)F)C1=O` [Compound 811], the plant injury at 125 g/ha in assay [1] (setting [8]) amounted to 0%. For the same compound, the plant injury at 31 g/ha in assay [1] (setting [6]) stood at 0%. In addition, the pest or weed control at 250 g/ha is 20% in assay [2] (setting [7]), 40% in assay [3] (setting [7]), 0% in assay [4] (setting [7]) and 40% in assay [5] (setting [7]).

`CN1CC[C@H](c2ccc3c(c2)OC(F)(F)O3)[C@@H](C(=O)Nc2cccc(F)c2F)C1=O` [Compound 812]: the plant injury at 125 g/ha in assay [1] (setting [8]) was determined as 60%. The plant injury at 31 g/ha in assay [1] (setting [6]) was 20%. The pest or weed control at 250 g/ha is 85% in assay [2] (setting [7]), 90% in assay [3] (setting [7]), 0% in assay [4] (setting [7]) and 0% in assay [5] (setting [7]).

With `CN1CC[C@H](c2ccc3c(c2)OC(F)(F)O3)[C@@H](C(=O)Nc2ccc(F)c(F)c2F)C1=O` [Compound 813], the plant injury at 125 g/ha in assay [1] (setting [8]) came out at 30%. Moreover, the plant injury at 31 g/ha in assay [1] (setting [6]) worked out at 0%. Besides, the pest or weed control at 250 g/ha is 70% in assay [2] (setting [7]), 100% in assay [3] (setting [7]), 20% in assay [4] (setting [7]) and 0% in assay [5] (setting [7]).

For the compound `CN1C[C@H](c2cccc(C3CC3)c2)[C@@H](C(=O)Nc2ccccc2F)C1=O` [Compound 815], the plant injury at 125 g/ha in assay [1] (setting [8]) is 30%. Moreover, the pest or weed control at 250 g/ha stood at 65% in assay [2] (setting [7]), 75% in assay [3] (setting [7]), 20% in assay [4] (setting [7]) and 0% in assay [5] (setting [7]).

For the compound `CN1C[C@H](c2csc3ccccc23)[C@@H](C(=O)Nc2ccccc2F)C1=O` [Compound 1114], the plant injury at 125 g/ha in assay [1] (postemergence, visual injury on 0 to 100 scale (0 no effect, 100 complete control), approx. 10 d, read-out: Wheat plant response rating) was found to be 0%. For the same compound, the plant injury at 500 g/ha in assay [1] (setting [9]) worked out at 30%. The pest or weed control at 250 g/ha in assay [2] (setting [10]) is 45%; in assay [3] (setting [10]), 85%; in assay [4] (setting [10]), 0%; in assay [5] (setting [10]) it was 0%.

As to `CSc1ccccc1NC(=O)[C@H]1C(=O)N(C)CC[C@@H]1c1ccc(C(F)(F)F)cc1` [Compound 1227], in assay [1] (setting [11]), the plant injury at 125 g/ha is 0%. Further, the plant injury at 500 g/ha in assay [1] (setting [9]) is 0%. Further, the pest or weed control at 250 g/ha in assay [2] (setting [10]) turned out to be 0%; in assay [3] (setting [10]), 80%; in assay [4] (setting [10]), 15%; in assay [5] (setting [10]) it was 0%.

As for `CSc1ccccc1NC(=O)[C@H]1C(=O)N(C)C[C@@H]1c1ccc(F)cc1` [Compound 1236], the plant injury at 125 g/ha in assay [1] (setting [11]) was 0%. The pest or weed control at 250 g/ha in assay [2] (setting [10]) was 65%; in assay [3] (setting [10]) it was 100%; in assay [4] (setting [10]), 35%; in assay [5] (setting [10]) it was 0%.

`O=C1NC[C@H](c2cccc(C(F)(F)F)c2)C1C(=O)Nc1c(F)cccc1CO` (stereo partly shown) [Compound 1240]: the plant injury at 125 g/ha in assay [1] (setting [11]) was found to be 0%. The pest or weed control at 250 g/ha in assay [2] (setting [10]), in assay [3] (setting [10]), in assay [4] (setting [10]) and in assay [5] (setting [10]) was 0% throughout.

Regarding `O=C1NC[C@H](c2cccc(C(F)(F)F)c2)C1C(=O)Nc1ccccc1CO` (stereo partly shown) [Compound 1244], the plant injury at 125 g/ha in assay [1] (setting [11]) stood at 0%. Also, the pest or weed control at 250 g/ha in assay [2] (setting [10]) turned out to be 20%; in assay [3] (setting [10]), 30%; in assay [4] (setting [10]) it was 0%; in assay [5] (setting [10]), 0%.

In the case of `CCc1ccc([C@H]2CNC(=O)[C@@H]2C(=O)Nc2c(F)cccc2F)cc1` [Compound 1248], the plant injury at 125 g/ha in assay [1] (setting [11]) turned out to be 0%. The plant injury at 500 g/ha in assay [1] (setting [12]) was 0%. Moreover, the pest or weed control at 250 g/ha in assay [2] (setting [10]) came to 15%; in assay [3] (setting [10]) it was 70%; in assay [4] (setting [10]), 0%; in assay [5] (setting [10]) it was 0%.

Turning to `CN1C[C@H](c2ccc(F)c(C#N)c2)[C@@H](C(=O)Nc2cccc(F)c2F)C1=O` [Compound 1255], the plant injury at 500 g/ha in assay [1] (setting [12]) amounted to 60%. The pest or weed control at 250 g/ha came to 65% in assay [2] (setting [10]), 100% in assay [3] (setting [10]), 0% in assay [4] (setting [10]) and 0% in assay [5] (setting [10]).

On to `CN1C[C@H](c2ccc(C(F)F)cc2)[C@@H](C(=O)Nc2ccc(F)c(F)c2F)C1=O` [Compound 1260], for which the plant injury at 500 g/ha in assay [1] (setting [12]) came out at 90%. For the same compound, the pest or weed control at 250 g/ha in assay [2] (setting [10]) stood at 80%; in assay [3] (setting [10]), 100%; in assay [4] (setting [10]), 50%; in assay [5] (setting [10]), 0%.

For `Cc1nc([C@H]2CN(C)C(=O)[C@@H]2C(=O)Nc2cccc(F)c2F)cs1` [Compound 1281], the plant injury at 125 g/ha in assay [1] (Postemergence, visual rating about 10 d after treatment, read-out: Wheat plant response rating (0 to 100 scale)) worked out at 0%. Besides, the plant injury at 500 g/ha in assay [1] (setting [12]) was determined as 0%. In addition, the pest or weed control at 250 g/ha is 0% in assay [2] (setting [10]), 50% in assay [3] (setting [10]), 0% in assay [4] (setting [10]) and 0% in assay [5] (setting [10]).

Source of the values: patent publication US12077503B2, “Substituted cyclic amides and their use as herbicides” (FMC CORPORATION, priority 2015, dated 2024).
